For twelve compounds, Emax, EC50 and Ki results are on record in patent US8846951B2 (AbbVie Inc., priority 2009, dated 2014).

For orientation: Emax means the greatest response seen or fitted, relative to the assay's reference. In general, EC50 refers to the concentration that produces a half-maximal response. For orientation: Ki means the dissociation constant of the complex between target and ligand, obtained from inhibition or displacement.

The structures appear in SMILES notation. Several values for one entry are separate records, joined by “and”; a condition that tells them apart may be missing. Equal values may be shown once. Read-outs that look alike come from different tables or passages of the source.

Assay [1] deals with T1, 5HT2C receptors (Homo sapiens, UniProt P28335).
T1 sequence (P28335 33-458): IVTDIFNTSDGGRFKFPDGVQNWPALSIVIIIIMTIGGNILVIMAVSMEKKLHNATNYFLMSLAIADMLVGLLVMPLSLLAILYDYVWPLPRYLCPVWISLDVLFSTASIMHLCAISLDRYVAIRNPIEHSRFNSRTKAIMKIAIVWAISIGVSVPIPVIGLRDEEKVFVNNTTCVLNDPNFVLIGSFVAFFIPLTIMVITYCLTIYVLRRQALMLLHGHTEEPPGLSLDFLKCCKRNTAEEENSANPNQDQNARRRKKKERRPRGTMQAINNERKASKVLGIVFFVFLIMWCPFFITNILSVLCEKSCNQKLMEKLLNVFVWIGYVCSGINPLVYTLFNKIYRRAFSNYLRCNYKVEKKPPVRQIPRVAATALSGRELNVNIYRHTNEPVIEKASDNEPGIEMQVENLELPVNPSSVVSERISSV
As to the kind of experiment: Human 5-HT2C functional high throughput screening assay in CHO-K1 cells (calcium flux). Format: cell-based. On the set-up: expressed in transfected cells; host or cells: CHO-K1 cells. The following applies: for Emax: 5-HT2C, maximum functional response as percentage relative to the effect of serotonin; for EC50: CHO-K1 cells, calcium flux. A digest of the protocol:
(§1)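 Agonism was measured as FLIPR fluorescence increase (480/530 nm, 25° C) with Ca4 dye and 2.5 mM probenecid, in serum-starved CHO-K1 lines overexpressing human 5-HT2C or 5-HT2B. Six-point 1:10 dilutions from 10 μM (0.2% DMSO final) were fitted by 4-parameter logistics. Responses were normalised to serotonin to give EC50 and % Emax.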

Assay [2] concerns the target T1, 5HT2C receptors. Put plainly: Human 5-HT2C functional assay in CHO-K1 cells (96-well, calcium, FLIPR). In kind it is cell-based. On the set-up: expressed in transfected cells. Particulars: 5-HT2c agonist activity, CHO-K1 cells stably transfected; call rule not given here. On the procedure:
(iv) Human 5-HT2C Functional Assay in CHO-K1 Cells
Functional activity was determined by testing the effect of the compounds on intracellular calcium levels in CHO-K1 cells stably transfected with the human 5-HT2C receptor. Cells were seeded into 96-well plates at 60,000 cells/well and grown overnight in tissue culture medium (UltraCHO™ (Lonza), containing 1% dFCS, 250 μg/mL Zeocin, 400 μg/mL Geneticin) at 37° C. and 5% CO2. Growth medium was replaced by medium without dFCS for overnight incubation. Cells were loaded with a fluorescent calcium-sensitive dye in the presence of probenicid according to the manufacturer's protocol (FLIPR Ca4 Assay kit, Molecular Devices). Serial compound dilutions (final concentrations 10^−10 to 10^−5 M) were added to the cells and the maximum calcium response was determined using a FLIPR instrument (Molecular Devices). Concentration-response curves were fitted using a four-parameter logistic equation (GraphPad Prism). The concentration at which the compound exerts half its maximal effect is named the ‘effective concentration 50’ or ‘EC50’ and is listed in Table 5.

Assay [3] concerns the target T2, human serotonin 5-HT2c receptor (Homo sapiens, UniProt P28335).
T2 construct: expressed in transfected cells; host or cells: CHO cells (membrane homogenates)
T2 sequence (P28335 33-458): T1 sequence (P28335 33-458)
As to the kind of experiment: Human 5-HT2C receptor radioligand binding assay (agonist site, [125I]DOI). Particulars: 5-HT2c agonist site; transfected CHO cell membranes; 0.2 nM [125I](±)DOI. On the procedure: (i) Human 5-HT2C Receptor Radioligand Binding Assay
Affinity of compounds for the agonist site of the […], receptor in transfected CHO cells was determined in a radioligand binding assay essentially as described by Bryant, H. U., et al., Life Sciences (1996) 59(15), 1259-1268.

Assay [4] concerns the target T3, 5HT2B receptors (Homo sapiens, UniProt P41595).
T3 construct: expressed in transfected cells; host or cells: CHO-K1 cells
As to the kind of experiment: Human 5-HT2B functional high throughput screening assay in CHO-K1 cells (calcium flux). Format: cell-based. The following applies: for EC50: CHO-K1 cells, calcium flux. A digest of the protocol: as §1
In general terms: Calcium flux is commonly read through the fluorescence of an indicator in the cells.

Assay [5] has as its target T1, 5HT2C receptors. Put plainly: Human 5-HT2C functional assay in 1321N1 cells (intracellular calcium, FLIPR). Format: cell-based. On the set-up: expressed in transfected cells; host or cells: 1321N1 cells. Particulars: 5-HT2c agonist activity, maximum calcium response. Summed up:
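Intracellular calcium (Fluo-4, FLIPR peak response) was measured in stably transfected human 5-HT2C 1321N1 cells after overnight serum-free culture. Compounds were applied at final 10^−10 to 10^−5 M either alone or together with 10^−9 M serotonin. Half-maximal effect concentration was derived by four-parameter logistic fitting.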

Where [6] appears, read: 5-HT2B, maximum functional response as percentage relative to the effect of serotonin.
Setting [7] is: 5-HT2C agonist activity, read-out: EC50.
[8] abbreviates: 5-HT2B agonist activity, read-out: EC50.

T3 sequence (P41595 whole entry): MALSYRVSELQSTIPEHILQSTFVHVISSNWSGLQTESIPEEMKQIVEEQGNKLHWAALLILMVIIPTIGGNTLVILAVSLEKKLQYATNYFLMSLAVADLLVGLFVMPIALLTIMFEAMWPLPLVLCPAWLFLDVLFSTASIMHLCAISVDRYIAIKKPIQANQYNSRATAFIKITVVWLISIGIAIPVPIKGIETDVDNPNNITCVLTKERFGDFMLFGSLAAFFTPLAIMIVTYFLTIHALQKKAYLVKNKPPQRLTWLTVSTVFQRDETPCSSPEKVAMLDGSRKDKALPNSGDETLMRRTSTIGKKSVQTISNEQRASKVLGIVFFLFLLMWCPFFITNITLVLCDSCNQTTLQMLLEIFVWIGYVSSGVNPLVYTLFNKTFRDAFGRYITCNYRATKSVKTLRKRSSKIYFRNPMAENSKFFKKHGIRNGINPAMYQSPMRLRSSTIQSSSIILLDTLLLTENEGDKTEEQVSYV

Regarding `O=C1NC[C@@H]2CNC[C@H]2c2cccc(F)c21` (single isomer, unassigned) [Example 62, Trans-7-fluoro-1,2,3,3a,4,5-hexahydrobenzo[e]pyrrolo[3,4-c]azepin-6(10bH)-one], the Emax in assay [1] is recorded as more than 120%; in assay [4] (setting [6]), 80%. The EC50 was determined as 0.0012 µM in assay [1] (EC50, 5-HT2C agonist activity); 0.0003 µM in assay [2]; 0.7 µM in assay [4] (EC50, 5-HT2B agonist activity). In assay [3], this compound came in with a Ki of 0.0082 µM.

Take `O=C1NC[C@@H]2CNC[C@H]2c2cc(F)ccc21` (relative stereo) [Example 64, Trans-9-fluoro-1,2,3,3a,4,5-hexahydrobenzo[c]pyrrolo[3,4-e]azepin-6(10bH)-one]: in assay [2], the EC50 was found to be 0.017 µM. The inhibition constant (Ki) in assay [3] is 1 µM.

Consider `CN1C[C@H]2CNC(=O)c3cc(-c4ccccc4)ccc3[C@@H]2C1` (relative stereo) [Example 86, Trans-2-methyl-8-phenyl-1,2,3,3a,4,5-hexahydrobenzo[e]pyrrolo[3,4-c]azepin-6(10bH)-one], for which the EC50 in assay [1] (setting [7]) was 0.007 µM; in assay [2], 0.0037 µM; in assay [4] (setting [8]), more than 10 µM. Moreover, the Emax in assay [1] (CHO-K1, read-out: Emax) is 110%; in assay [4] (setting [6]), “inactive”.

With `CN1C[C@H]2CNC(=O)c3cc(F)ccc3[C@@H]2C1` (relative stereo) [Example 91, Trans-8-fluoro-2-methyl-1,2,3,3a,4,5-hexahydrobenzo[e]pyrrolo[3,4-c]azepin-6(10bH)-one], the Emax is more than 120% in assay [1] (CHO-K1) and 25% in assay [4] (CHO-K1). Moreover, the EC50 in assay [1] (EC50, 5-HT2C agonist activity) was 0.02 µM; in assay [2], 0.0015 µM; in assay [4] (EC50, 5-HT2B agonist activity), 3 µM.

With `Clc1ccc2c(c1)[C@H]1CNC[C@@H]1CCO2` (relative stereo) [Example 95, Trans-9-chloro-2,3,3a,4,5,10b-hexahydro-1H-[1]benzoxepino[4,5-c]pyrrole], the Emax was more than 120% in assay [1] (CHO-K1) and 35% in assay [4] (CHO-K1). Also, the EC50 in assay [2] was 0.0017 µM.

`c1ccc(CN2C[C@@H]3CCOc4ccccc4[C@H]3C2)cc1` (relative stereo) [Example 93, Trans-2-benzyl-2,3,3a,4,5,10b-hexahydro-1H-[1]benzoxepino[4,5-c]pyrrole]: the EC50 was 0.1 µM in assay [1] (setting [7]), 0.0044 µM in assay [2] and more than 10 µM in assay [4] (setting [8]). Moreover, the Emax in assay [1] (CHO-K1, read-out: Emax) was more than 120%; in assay [4] (setting [6]), “inactive”.

Take `c1ccc2c(c1)OCC[C@H]1CNC[C@H]21` (relative stereo) [Example 94, Trans-2,3,3a,4,5,10b-hexahydro-1H-[1]benzoxepino[4,5-c]pyrrole]: the values for the Emax in assay [1] (CHO-K1) and in assay [4] (CHO-K1) were more than 120% and 45%, respectively. Besides, the 50% effective concentration (EC50) in assay [1] (EC50, 5-HT2C agonist activity) amounted to 0.03 µM; in assay [2] it was 0.124 µM; in assay [4] (EC50, 5-HT2B agonist activity), 0.5 µM.

For `O=C1NC[C@@H]2CN(Cc3ccccc3)C[C@H]2c2cc(F)ccc21` (relative stereo) [Example 63, Trans-2-benzyl-9-fluoro-1,2,3,3a,4,5-hexahydrobenzo[c]pyrrolo[3,4-e]azepin-6(10bH)-one], the EC50 is 0.2 µM in assay [1] (setting [7]), 0.145 µM in assay [2] and more than 10 µM in assay [4] (setting [8]). For the same compound, the Emax in assay [1] (CHO-K1, read-out: Emax) is 120%; in assay [4] (setting [6]), “inactive”. Affinity in assay [3] was put at a Ki of 0.14 µM.

Consider `O=C1NC[C@@H]2CNC[C@H]2c2c(F)cccc21` (relative stereo) [Example 67, Trans-10-fluoro-1,2,3,3a,4,5-hexahydrobenzo[c]pyrrolo[3,4-e]azepin-6(10bH)-one], for which the Emax in assay [1] (CHO-K1) is more than 120%; in assay [4] (CHO-K1), 110%. Moreover, the EC50 in assay [1] (EC50, 5-HT2C agonist activity) is 0.005 µM; in assay [2] it was 0.0025 µM; in assay [5] it was 0.00655 µM; in assay [4] (EC50, 5-HT2B agonist activity), 1 µM and > 10 µM. Moreover, the affinity in assay [3] corresponds to a Ki of 0.043 µM.

For `CN1C[C@H]2CNC(=O)c3cc(Cl)ccc3[C@@H]2C1` (relative stereo) [Example 53, Trans-8-chloro-2-methyl-1,2,3,3a,4,5-hexahydrobenzo[e]pyrrolo[3,4-c]azepin-6(10bH)-one], the Emax was 100% in assay [1] (CHO-K1) and “inactive” in assay [4] (setting [6]). For the same compound, the EC50 in assay [1] (EC50, 5-HT2C agonist activity) was 0.02 µM; in assay [2], 0.00293 µM; in assay [4] (EC50, 5-HT2B agonist activity), more than 10 µM. This compound also yielded an inhibition constant Ki in assay [3] of 0.0081 µM.

For the compound `CN1C[C@H]2CNC(=O)c3ccc(F)cc3[C@@H]2C1` (relative stereo) [Example 90, Trans-9-fluoro-2-methyl-1,2,3,3a,4,5-hexahydrobenzo[e]pyrrolo[3,4-c]azepin-6(10bH)-one], the Emax in assay [1] (CHO-K1) was 85%; in assay [4] (setting [6]) it was “inactive”. Also, the EC50 in assay [1] (EC50, 5-HT2C agonist activity) is 0.3 µM; in assay [2], 0.0145 µM; in assay [4] (EC50, 5-HT2B agonist activity), more than 10 µM.

`c1ccc2c(c1)OCC[C@H]1CNC[C@@H]21` (relative stereo) [Example 96, Cis-2,3,3a,4,5,10b-hexahydro-1H-[1]benzoxepino[4,5-c]pyrrole]: the Emax stood at 120% in assay [1] (CHO-K1) and 50% in assay [4] (CHO-K1). Besides, the EC50 in assay [1] (EC50, 5-HT2C agonist activity) is 0.2 µM; in assay [2], 0.0369 µM; in assay [4] (EC50, 5-HT2B agonist activity), 1 µM. For the same compound, in assay [3], the Ki was determined as 0.38 µM.
